This note sets out measurements from PMC3626250, “Effects of Borneol on Pharmacokinetics and Tissue Distribution of Notoginsenoside R1 and Ginsenosides Rg1 and Re in Panax notoginseng in Rabbits” (Journal of Analytical Methods in Chemistry, 2013).

One data set relates to Caco-2 cells. Description: MTT cytotoxicity assay toward Caco-2 cells. Type of data set: cell-based. The conditions noted are these: chosen for transport study. As for the experimental part:
The Caco-2 cells were cultured in Dulbecco's modified Eagle's medium (DMEM) supplemented with 20% foetal bovine serum, 1% nonessential amino acids and penicillin-streptomycin, at 37°C in an atmosphere with a relative humidity of 95% and a CO2 flow of 5%. Medium was replaced every 2-3 days. When the cell monolayer reached 80% confluence, the cells were detached with a solution of 0.02% EDTA and 0.25% trypsin. The vinblastine-selected Caco-2 cells were cultivated in the presence of 10 nM vinblastine to induce P-glycoprotein (P-gp) expression. The culture medium was changed to a fresh medium without vinblastine 24 h before experiments, and the cells were used between passages 25 and 46. Prior to the transport study, cytotoxicity of NGR1, GRg1, GRe, and Borneol toward Caco-2 cells was determined using MTT assays. Noncytotoxic concentrations of 500 μM NGR1, GRg1, GRe, and 200 μM Borneol (dissolved in DMSO) were chosen for transport study.
For orientation: Tetrazolium assays rely on reduction of a dye to a coloured formazan, in cell work by metabolically active cells.

In another data set the test system is Caco-2 cell monolayers. Description: TEER values of the Caco-2 cell monolayers. Type of data set: cell-based. The following applies: 200 μM Borneol with 500 μM NGR1, GRg1 and GRe, Caco-2 monolayers. As for the experimental part:
In transport studies, vinblastine-selected Caco-2 cells were seeded on polycarbonate filter of transwells for 18–21 days before starting transport study, and the monolayers with the transepithelial electrical resistance (TEER) values greater than 300 Ωcm^2 were used. Caco-2 monolayers were rinsed twice with Hanks' balanced salt solution (HBSS) and preincubated in HBSS at 37°C for 30 min before starting experiments. To start the experiments, 500 μM of NGR1, GRg1, and GRe in final concentrations were added to the donor side with or without 200 μM Borneol and then incubated at 37°C. An aliquot of 0.1 mL samples were withdrawn from receiver chambers at 0, 30, 60, 90, and 120 min after the loading. After each sampling, 0.1 mL of HBSS was added to the receiver chamber to maintain a constant volume. All the experiments were performed five times in duplicate. […] During the above transport studies, the TEER values were also monitored before and at the end of each experiment. Apparent permeability coefficients (P app) were then calculated according to the following equation: (1) Papp=(dC/dt×V)/(A×C0), where dC/dt is the rate of the test compound appearing in the receiver chamber, V is the volume of the solution in the receiver chamber, A is the cell monolayer surface area, and C 0 is the initial concentration of the test compound added in the donor chamber. […]

The molecule `CC1(C)C2CCC1(C)C(O)C2` (centres unmarked) [Borneol] registered a Noncytotoxic concentration in the data set with Caco-2 cells of 200 µM. Moreover, in the data set on Caco-2 cell monolayers, the “TEER values of the monolayers decreased reversibly to” value is “about 23%”.
